From ChEMBL document CHEMBL5032524, “Discovery of novel IDO1 inhibitors targeting the protein's apo form through scaffold hopping from holo-IDO1 inhibitor” (Bioorg Med Chem Lett, 2021)

Key:
[1] = target: T1, Indoleamine 2,3-dioxygenase 1 (Homo sapiens, UniProt P14902); test: Inhibition of IDO1 in human HeLa cells; type: cell-based
[2] = target: T1, Indoleamine 2,3-dioxygenase 1; test: Inhibition of recombinant human IDO1

T1 sequence (P14902 whole entry): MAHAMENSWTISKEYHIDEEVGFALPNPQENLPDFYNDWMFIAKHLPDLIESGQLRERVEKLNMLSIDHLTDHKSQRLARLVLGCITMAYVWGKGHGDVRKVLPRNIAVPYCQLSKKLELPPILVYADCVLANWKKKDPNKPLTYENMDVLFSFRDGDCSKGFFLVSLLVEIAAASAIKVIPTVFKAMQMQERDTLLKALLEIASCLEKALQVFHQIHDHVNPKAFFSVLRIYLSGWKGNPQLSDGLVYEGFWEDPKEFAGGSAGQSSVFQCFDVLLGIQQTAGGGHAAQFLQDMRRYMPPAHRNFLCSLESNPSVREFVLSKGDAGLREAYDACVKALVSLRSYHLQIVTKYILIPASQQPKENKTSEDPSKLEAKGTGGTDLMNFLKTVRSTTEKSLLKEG

SMILES	IC50 [1]	IC50 [2]
CC(C)CN(CC(C)C)c1ccc(/C(=N/O)Nc2ccc(F)c(Br)c2)cc1NC(=O)Nc1cncnc1	0.86 µM	> 3 µM
CCCNC(=O)Nc1cc(/C(=N/O)Nc2ccc(F)c(Br)c2)ccc1N(CC(C)C)CC(C)C	2.61 µM	2.9 µM
CC(C)CN(CC(C)C)c1ccc(/C(=N/O)Nc2ccc(F)c(Br)c2)cc1NC(=O)NC1CCCCC1	1.34 µM	> 3 µM
Cc1ccc(NC(=O)Nc2cc(/C(=N/O)Nc3ccc(C)cc3)ccc2N(CC(C)C)CC(C)C)cc1	1.34 µM	1.56 µM
Cc1ccc(NC(=O)Nc2cc(/C(=N/O)Nc3ccc(F)c(Br)c3)ccc2N(CC(C)C)CC(C)C)cc1	0.76 µM	2.3 µM
CC(C)CN(CC(C)C)c1ccc(/C(=N/O)Nc2ccc(F)c(Br)c2)cc1NC(=O)Nc1ccc(C(F)(F)F)cc1	2.09 µM	> 3 µM
CCCCNC(=O)Nc1cc(/C(=N/O)Nc2ccc(F)c(Br)c2)ccc1N(CC(C)C)CC(C)C	3.11 µM	> 3 µM
CC(C)CN(CC(C)C)c1ccc(/C(=N/O)Nc2ccc(F)c(Br)c2)cc1NC(=O)Nc1ccc(Cl)cc1	0.44 µM	1.49 µM
Cc1ccc(N/C(=N\O)c2ccc(N(CC(C)C)CC(C)C)c(NC(=O)Nc3cncnc3)c2)cc1	0.44 µM	2.32 µM
CCCNC(=O)Nc1nonc1/C(=N/O)Nc1ccc(F)c(Br)c1		0.127 µM
